One assay relates to mouse spleen lymphocytes. The experiment in a line: Proliferation of mouse spleen lymphocytes (ConA, MTT). The assay is classed as cell-based. The note with it: 20 μg/mL, 48 h. The protocol:
Tris-NH4Cl was used to break the red blood cells, which were allowed to stand in an ice water bath for 4 min and centrifuged (1000 rpm, 5 min), the supernatant was discarded, and the cells were washed twice with sterile PBS.
The cells were statically cultured in a cell incubator at 37° C. for 48 h. After the completion of the culture, 20 μL of MTT was added to each well, and the culture was continued for 4 h. Finally, all the solutions in each well were discarded, 100 μL of DMSO was added to each well, and the mixture was shaken and detected by a microplate reader for OD value at 570 nm. 5 parallels were preformed for per well.

Assay [1] has as its system IL-1β production by mouse peritoneal macrophages. Kind of assay: IL-1β production by mouse peritoneal macrophages (ELISA). The assay is classed as cell-based. The settings on record: 20 μg/mL, 48 h. The protocol: (1) IL-1β production: mice were intraperitoneally injected with 1 mL of broth medium containing 6% starch, and three days later, the mouse peritoneal macrophages were aseptically taken, washed twice with a 1640 medium, adjusted to the cell concentration of 2×10^6 cells/mL, inoculated into a 24-well culture plate, 1 mL/well, incubated for 3 h in a cell culture incubator, and shaken once every 30 min, so that the cells were allowed to adhere sufficiently. Then, the cells were washed twice with a culture liquid to remove un-adhered cells. […] After administration, the culture was continued for 48 h, the cells were centrifuged at 1000 r/min for 15 min. The supernatant was taken as a sample for testing activity of IL-1β.
(2) Determination of IL-1β content: the detection was performed by using mouse IL-1β enzyme-linked immunosorbent assay kit from R&D company. […]

Assay [2] relates to peritoneal capillary permeability in mice. Kind of assay: Peritoneal capillary permeability in mice (Evans blue, HAc). The assay is classed as in vivo, Kunming mice. The note with it: 10 mg/kg by injection. The protocol:
The drug was administered once by injection every 5 days, and the blank model group was given an equal volume of physiological saline for 5 days and fed normally. On the 5th day after the administration, a 5 g/L of Evans blue physiological saline solution was injected into the tail vein at […], followed by intraperitoneal injection ([…]) HAc solution (6 mL/L) to induce inflammation. After 20 min, the mice were sacrificed by cervical dislocation. 5 mL of physiological saline was intraperitoneally injected, the abdomen was gently rubbed for 2 min, the abdominal cavity was cut, a peritoneal washing solution was collected and centrifuged at 4000 rpm for 10 min, 1 mL of supernatant was taken, and 3 mL of physiological saline was added to obtain a 4 mL of dilution. The absorbance OD value of the dilution was measured by an ultraviolet spectrophotometer at a wavelength of 590 nm, and the amount of pigment exudation was expressed by the OD590 nm value, and peritoneal capillary permeability in mice was examined.

In assay [3] the test system is toe swelling in rat induced by carrageenan. The experiment in a line: Acute inflammation of toe swelling in rat induced by carrageenan. The assay is classed as in vivo, SD rats. The settings on record: 10 mg/kg. As for the experimental part: 80 SD rats were randomly divided into 8 groups with 10 mice for each group. […] The drug was administered once by injection every 5 days, and the model group was given an equal volume of physiological saline for 3 days and fed normally. On the third day after the administration, 0.1 mL of 1% carrageenan was injected subcutaneously into the right hind toes of the rats to induce inflammation. The foot volume was measured at 1 h, 3 h, 5 h, and 7 h after inflammation. The swelling degree of the foot was calculated according to the following formula: the swelling degree of the foot (mL)=the volume of the foot after inflammation−the volume before inflammation. The number of milliliters of spilled liquid was recorded (method: the protruding point of the right joint was circled with a ballpoint pen and used as a measurement mark, and the right hind feet of the rats were sequentially placed in the volume measuring device, so that the hind limbs were exposed outside the cylinder, and the depth of the immersion was limited to the overlap of the circle and the liquid level. After the foot entered the liquid, the liquid level was raised, and the volume of the spilled liquid was the volume of the right hind foot of the rat, and the normal volume of the right hind foot of each mouse is sequentially determined).

The subject of assay [4] is angiogenesis of chicken embryo chorioallantoic membrane. Kind of assay: Chicken embryo chorioallantoic membrane (CAM) angiogenesis assay. The assay is classed as in vivo, White Leghorn chicken embryos. The note with it: 10 μg, 72 hours. As for the experimental part:
The study has shown that the biosynthesis rate of collagen reached the maximum on the 8th to 11th day of chicken embryo development, which was the most vigorous stage of angiogenesis, and the body's immune system had not yet been fully established at that time, and thus the chicken embryos developed to the 8th day was selected to be administered. […] The following steps were used:
(1) The White Leghorn chicken embryos on day 6 were cultured in a 37° C. incubator at 60%-70% humidity for two days.
(2) A 1.0 cm×1.0 cm window was drilled above the chicken embryo air sac, and the inner membrane was torn off with forceps to expose the chorioallantoic membrane. Lens paper having a diameter of 5 mm was used as a loading carrier, and was placed on the chorioallantoic membrane of the chicken embryo air sac. […]
(3) The chicken embryo air sac was sealed with a sterile transparent tape, and after culturing at 37° C. for 72 hours, the chicken embryo air sac was opened, and a fixative (formaldehyde:acetone=1:1) was added for fixation for 15 minutes. The chorioallantoic membrane to which the lens paper was adhered was taken out, the distribution of the new blood vessels was observed, and the new blood vessels were counted and photographed. Five replicates were set for each dose and the results were statistically analyzed.

Assay [5] deals with human retinal vascular endothelial cell (HRCEC). The experiment in a line: MTT assay, proliferation of human retinal vascular endothelial cell (HRCEC). The assay is classed as cell-based. The note with it: 5 μg/mL, 48 h. The protocol: The activity of the integrin blocker polypeptide to inhibit proliferation of human retinal vascular endothelial cells was examined by MTT assay. HRCEC cells were cultured in a 5% CO2 incubator at 37° C. to a density of 90% or more, and then collected by trypsinization. The cells were resuspended in the culture liquid and counted under a microscope. The cell concentration was adjusted to 3.0×10^4 cells/mL. The cell suspension was inoculated into a 96-well plate, 100 μL per well, and cultured overnight in a 5% CO2 incubator at 37° C. […] After the cells were fully adhered, each dilution was added to a 96-well plate, 100 μL per well, respectively. […] 20 μL of 5 mg/mL MTT was added to each well of a 96-well plate, and incubation was continued for 4 hours. The medium was aspirated and 100 μL of DMSO was added per well for dissolution. The absorbance was measured at 570 nm with a microplate reader with a reference wavelength of 630 nm, and the proliferation inhibition (PI) was calculated. The formula was as follows: […]
where Ntest is the OD value of the test group and Ncontrol is the OD value of the blank control group.
The test was repeated 5 times independently. The results obtained from the test were calculated as mean±SD, and statistical t-test was performed. P<0.05 was considered as a significant difference, and P<0.01 was considered as an extremely significant difference.
In general terms: Formazan colour is commonly taken as a measure of viable cells.

For the compound `C[C@@H]1C[C@H]2[C@@H]3CCC4=CC(=O)C=C[C@]4(C)[C@@]3(F)[C@@H](O)C[C@]2(C)[C@@]1(O)C(=O)CO` [Dex, dexamethasone, reference compound], in the assay with mouse spleen lymphocytes, the “A570 nm/A630 nm” value worked out at 0.3468 ± 0.1144. Further, the “PI (%)” value turned out to be 41.11% with mouse spleen lymphocytes and 61.38% in assay [1] (IL-1β). Also, in assay [1], the “IL-1β” value amounted to 322.46 ± 20.56 pg/mL. Also, the “Exudation rate (OD590)” value in assay [2] was determined as 0.27 ± 0.03. Besides, the “Swelling degree” value in assay [3] (1 h after carrageenan) stood at 0.21 ± 0.11 mL; in assay [3] (3 h after carrageenan), 0.26 ± 0.10 mL; in assay [3] (5 h after carrageenan) it was 0.26 ± 0.11 mL; in assay [3] (7 h after carrageenan) it was 0.25 ± 0.09 mL.

The compound “bevacizumab [Avastin ®, reference compound]” yielded a Blood vessel number in assay [4] of 63 ± 17. In addition, the “A570 nm/A630 nm” value in assay [5] is 0.4544.

Source of the values: patent US11542311B2, “Fusion protein, preparation method therefor and application thereof in preparing ophthalmic disease treatment, anti-inflammation and anti-tumor medicament” (JIANGSU RONGTAI BIOTECH CO., LTD., priority 2017, dated 2023).
